Data taken from US12358932B2, “Chemical compounds” (BORAH, INC., priority 2019, dated 2025).

These molecules were tested against T1, Recombinant human PDE4B (Homo sapiens, UniProt Q07343) (assay: PDE4B Phosphodiesterase Assay). Conditions: compound list; + = noted target activity.
T1 construct: aa 305-end; GST (N); made in house; host or cells: Sf9 insect cells (baculovirus)
Format: biochemical
Parameters: key to Activity Note: PDE4: The (+) symbols identify a compound of the present disclosure with the noted target activity; +*: The (*) symbols indicate preferential activity, where the greater number identifies the most preferred compounds; +**: The (*) symbols indicate preferential activity, where the greater number identifies the most preferred compounds; +***: The (*) symbols indicate preferential activity, where the greater number identifies the most preferred compounds
Method: The assay is based on the fluorescence polarization measuring AMP/GMP production as a result of the enzyme activity by displacement of Tracer binding to the AMP/GMP antibody. • Reaction Buffer: 10 mM Tris-HCl, pH 7.5, 5 mM MgCl2, 0.01% Brij 35, 1 mM DTT and 1% DMSO. • Enzyme: Recombinant human PDE4B (Gene Accession #NM_002600; aa 305-end) was expressed by baculovirus in Sf9 insect cells using an N-terminal GST tag. Mw=78 kDa. • Substrate: 1 μM cAMP • Detection: Transcreener® AMP2/GMP2 Antibody AMP2/GMP2 AlexaFluor 633 Tracer Reaction Procedure: • 1. Prepared indicated enzyme and substrate in freshly prepared Reaction Buffer • 2. Delivered enzyme solution into the reaction well • 3. Delivered compounds in 100% DMSO into the enzyme solution by Acoustic technology (Echo550; nanoliter range), incubated for 10 min at room temperature • 4. Delivered substrate solution into the reaction well to initiate the reaction • 5. Incubated for 1 h at room temperature • 6. Added detection mixture (Tracer and antibody in the stop buffer) to stop the reaction and incubated for 90 min with gentle mixing. The fluorescence polarization was measured at Ex/Em 620/688.
Data Analysis: The FP signals were converted into nM product based on an AMP/GMP standard curve and calculated % Enzyme activity relative to DMSO control by Excel. The curve fit was performed using GraphPad prism.

T1 sequence (Q07343 305-736 limits assumed): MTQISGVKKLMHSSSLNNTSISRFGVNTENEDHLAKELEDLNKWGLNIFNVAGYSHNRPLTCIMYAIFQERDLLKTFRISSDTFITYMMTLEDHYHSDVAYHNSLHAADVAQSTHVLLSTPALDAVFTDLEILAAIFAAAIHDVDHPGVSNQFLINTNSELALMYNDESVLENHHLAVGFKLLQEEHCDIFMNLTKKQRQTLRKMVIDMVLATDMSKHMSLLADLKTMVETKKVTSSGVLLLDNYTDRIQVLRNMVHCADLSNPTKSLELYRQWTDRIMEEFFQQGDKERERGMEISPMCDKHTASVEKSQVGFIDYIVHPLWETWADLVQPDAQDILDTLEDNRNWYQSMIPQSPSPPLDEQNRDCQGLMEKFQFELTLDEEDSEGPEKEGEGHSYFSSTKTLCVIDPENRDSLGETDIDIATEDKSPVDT

Activity Note: PDE4, +:
CCCNc1nc(Nc2ccc3c(c2)COB3O)ncc1C [5-((5-methyl-4-(propylamino)pyrimidin-2-yl)amino)benzo[c][1,2]oxaborol-1(3H)-ol]
OB1OCc2cc(Nc3ncc(C(F)(F)F)c(NCCC4CC4)n3)ccc21 [5-((4-((2-cyclopropylethyl)amino)-5-(trifluoromethyl)pyrimidin-2-yl)amino)benzo[c][1,2]oxaborol-1(3H)-ol]
Cc1cnc(Nc2ccc3c(c2)COB3O)nc1NCc1ccccc1 [5-((4-(benzylamino)-5-methylpyrimidin-2-yl)amino)benzo[c][1,2]oxaborol-1(3H)-ol]
Cc1cnc(N(C)c2ccc3c(c2)COB3O)nc1OC1CCCCC1 [drawing 151, 5-((4-(cyclohexyloxy)-5-methylpyrimidin-2-yl)(methyl)amino)benzo[c][1,2]oxaborol-1(3H)-ol]
CCC(CC)Nc1nc(Nc2cc(F)c3c(c2)COB3O)ncc1C(F)(F)F [7-fluoro-5-((4-(pentan-3-ylamino)-5-(trifluoromethyl)pyrimidin-2-yl)amino)benzo[c][1,2]oxaborol-1(3H)-ol]
Cc1cnc(Nc2ccc3c(c2)COB3O)nc1NCc1cccc(F)c1 [5-((4-((3-fluorobenzyl)amino)-5-methylpyrimidin-2-yl)amino)benzo[c][1,2]oxaborol-1(3H)-ol]
CCC(CC)Nc1nc(Nc2ccc3c(c2)COB3O)ncc1Cl [5-((5-chloro-4-(pentan-3-ylamino)pyrimidin-2-yl)amino)benzo[c][1,2]oxaborol-1(3H)-ol]
Cc1cnc(Nc2ccc3c(c2)COB3O)nc1NC1CC1 [5-((4-(cyclopropylamino)-5-methylpyrimidin-2-yl)amino)benzo[c][1,2]oxaborol-1(3H)-ol]
Cc1cnc(Nc2ccc3c(c2)COB3O)nc1NC1CCCCC1 [5-((4-(cyclohexylamino)-5-methylpyrimidin-2-yl)amino)benzo[c][1,2]oxaborol-1(3H)-ol]
OB1OCc2cc(Nc3nccc(NC4CCCCC4)n3)ccc21 [5-((4-(cyclohexylamino)pyrimidin-2-yl)amino)benzo[c][1,2]oxaborol-1(3H)-ol]
Cc1cnc(Nc2ccc3c(c2)COB3O)nc1NC(CCF)CCF [5-((4-((1,5-difluoropentan-3-yl)amino)-5-methylpyrimidin-2-yl)amino)benzo[c][1,2]oxaborol-1(3H)-ol]
Cc1cnc(Nc2ccc3c(c2)COB3O)nc1NC1CCCC1 [5-((4-(cyclopentylamino)-5-methylpyrimidin-2-yl)amino)benzo[c][1,2]oxaborol-1(3H)-ol]
OB1OCc2cc(Nc3ncc(C(F)(F)F)c(NCc4ccccc4)n3)ccc21 [5-((4-(benzylamino)-5-(trifluoromethyl)pyrimidin-2-yl)amino)benzo[c][1,2]oxaborol-1(3H)-ol]
CCC(CC)Oc1nc(Nc2ccc3c(c2)COB3O)ncc1C [5-((5-methyl-4-(pentan-3-yloxy)pyrimidin-2-yl)amino)benzo[c][1,2]oxaborol-1(3H)-ol]
CCC(CC)Nc1nc(Nc2ccc3c(c2)COB3O)ncc1C#N [2-((1-hydroxy-1,3-dihydrobenzo[c][1,2]oxaborol-5-yl)amino)-4-(pentan-3-ylamino) pyrimidine-5-carbonitrile]
Cc1cnc(Nc2ccc3c(c2)COB3O)nc1Nc1ccccc1C(F)(F)F [5-((5-methyl-4-((2-(trifluoromethyl)phenyl)amino)pyrimidin-2-yl)amino)benzo[c][1,2]oxaborol-1(3H)-ol]
CCC(CC)Nc1nc(Nc2ccc3c(c2)COB3O)ncc1C(F)(F)F [5-((4-(pentan-3-ylamino)-5-(trifluoromethyl)pyrimidin-2-yl)amino)benzo[c][1,2]oxaborol-1(3H)-ol]
Cc1cnc(Nc2ccc3c(c2)COB3O)nc1NC1CCCC(C)C1 (stereo not drawn) [5-((5-methyl-4-((3-methylcyclohexyl)amino)pyrimidin-2-yl)amino)benzo[c][1,2]oxaborol-1(3H)-ol]
CCC(C)Nc1nc(Nc2ccc3c(c2)COB3O)ncc1C (stereo not drawn) [5-((4-(sec-butylamino)-5-methylpyrimidin-2-yl)amino)benzo[c][1,2]oxaborol-1(3H)-ol]
CCC(CO)Nc1nc(Nc2ccc3c(c2)COB3O)ncc1C (stereo not drawn) [5-((4-((1-hydroxybutan-2-yl)amino)-5-methylpyrimidin-2-yl)amino)benzo[c][1,2]oxaborol-1(3H)-ol]
Cc1cnc(Nc2ccc3c(c2)COB3O)nc1NC1CCC(C)CC1 (stereo not drawn) [5-((5-methyl-4-((4-methylcyclohexyl)amino)pyrimidin-2-yl)amino)benzo[c][1,2]oxaborol-1(3H)-ol]
OB1OCc2cc(Nc3ncc(Cl)c(NC4CCCC4)n3)cc(F)c21 [5-((5-chloro-4-(cyclopentylamino)pyrimidin-2-yl)amino)-7-fluorobenzo[c][1,2]oxaborol-1(3H)-ol]
CCCC(CC)Nc1nc(Nc2ccc3c(c2)COB3O)ncc1Cl (stereo not drawn) [5-((5-chloro-4-(hexan-3-ylamino)pyrimidin-2-yl)amino)benzo[c][1,2]oxaborol-1(3H)-ol]
OB1OCc2cc(Nc3ncc(C(F)(F)F)c(NC4CCCC4)n3)ccc21 [5-((4-(cyclopentylamino)-5-(trifluoromethyl)pyrimidin-2-yl)amino)benzo[c][1,2]oxaborol-1(3H)-ol]
OB1OCc2cc(Nc3ncc(F)c(NCc4ccccc4)n3)ccc21 [5-((4-(benzylamino)-5-fluoropyrimidin-2-yl)amino)benzo[c][1,2]oxaborol-1(3H)-ol]
OB1OCc2cc(Nc3ncc(Cl)c(NC4CCCC4)n3)ccc21 [5-((5-chloro-4-(cyclopentylamino)pyrimidin-2-yl)amino)benzo[c][1,2]oxaborol-1(3H)-ol]
CCC(CC)Nc1nc(Nc2ccc3c(c2)COB3O)ncc1F [5-((5-fluoro-4-(pentan-3-ylamino)pyrimidin-2-yl)amino)benzo[c][1,2]oxaborol-1(3H)-ol]
Cc1cnc(Nc2cc(F)c3c(c2)COB3O)nc1Nc1ccccc1 [7-fluoro-5-((5-methyl-4-(phenylamino)pyrimidin-2-yl)amino)benzo[c][1,2]oxaborol-1(3H)-ol]
Cc1cnc(Nc2ccc3c(c2)COB3O)nc1NCc1ccc(Cl)cc1 [5-((4-((4-chlorobenzyl)amino)-5-methylpyrimidin-2-yl)amino)benzo[c][1,2]oxaborol-1(3H)-ol]
OB1OCc2cc(Nc3ncc(F)c(NCCC4CC4)n3)ccc21 [5-((4-((2-cyclopropylethyl)amino)-5-fluoropyrimidin-2-yl)amino)benzo[c][1,2]oxaborol-1(3H)-ol]
